Reference: patent US20010041676A1, “Glycosides and orthoester glycosides of glucocorticoids and uses thereof” (priority 2000, published 2001)
Like-named read-outs stand apart in the source and are kept apart here.

Experiments:
in vivo = details: rat, serum, 20 mg
Protocol: (§1) 1 ml of rat serum was introduced into Varian-abselut (3 ml) cartridge (Part number SP12103100; analytical sample preparation and solid phase extraction use cartridge). Suction was applied and the cartridge was washed with 3 ml of water followed by 2 ml of water. The cartridges were dried under suction for 5 minutes and a jet stream of argon was blown to dry the trace amounts of water. The cartridge was washed once with 3 ml of hexane and the steroidal portion was eluted with 5 ml of methanol. The methanol portion was dried under nitrogen. The dried extract, which contains prednisolone or the glucoside, was constituted with 300 μl of ethyl acetate-methanol mixture (290 μl of ethyl acetate and 10 μl of methanol). 100 μl injections were made using manual injections in the HPLC instrument.
(§2) Hewlett Packard-Agilent 1100 series instrument with UV detector G1315A and a manual injector with a 100 μL loop were used in the assay.
(§3) The solvents used in the elution were a mixture of methanol (2 parts), ethyl acetate (42 parts) and hexane (56 parts). The mixture was run at a flow rate of 1 ml per minute.
(§4) The serum prednisolone and prednisolone glucoside levels were assessed from the animals dosed with either 20 mg of prednisolone or 29 mg of prednisolone glucoside (20 mg equivalent). The animals were sacrificed after 30 minutes and 60 minutes.
(§5) The serum prednisolone levels were calculated based upon the HPLC analyses of prednisolone and prednisolone glucoside. These values are calculated based upon the mAU and area values calculated against the standards.

[1] = pH 1.0, 20 mg/ml, room temperature, up to 72 hours
Protocol: The acid stability of prednisolone glucoside was qualitatively assessed by thin layer chromatography (TLC).
Prednisolone glucoside was suspended in pH 1.0 (freshly prepared from 10 M HCl solution) at a concentration of 20 mg/ml and stirred as a turbid solution at room temperature for 72 hours. At 24 and 48 hours, 100 μl aliquots were removed and diluted with about 200 μl of methanol to make a homogeneous solution. Approximately 50 μl was applied to a TLC plate (Sigma-Aldrich #Z 29298-2, made by Merck—silica TLC plates) with several repeated small applications. As controls, standard applications of 10 μg of fresh prednisolone glucoside, dissolved in 100 μl of methanol, and about 10 μg of prednisolone, in 50 μl of methanol, were applied at separate spots. Several repeated small applications were used to minimize the size of applied spot.
The TLC plates were initially eluted with ethyl acetate and then illuminated with the Aldrich's hand held model UV source (short UV light source used, Spectroline #1281657). The TLC plates were then dried, reeluted with methanol and then illuminated again with the UV source.

[2] = rat serum; for Serum prednisolone-glycoside: prednisolone-glucoside group (29 mg); for Serum Prednisolone: prednisolone-glucoside group (29 mg, 20 mg equivalent)
Protocol: as §1, §2, §3, §4, §5

| concentration at 30 min (in vivo) [µg/mL] | concentration at 60 min (in vivo) [µg/mL] | Compound | Acid stability (qualitative, TLC) [1] | Serum prednisolone-glycoside ([2]; 30 mins) [ng/mL] | Serum prednisolone-glycoside ([2]; 60 mins) [ng/mL] | Serum Prednisolone ([2]; 30 mins) [ng/mL] | Serum Prednisolone ([2]; 60 mins) [ng/mL] |
| --- | --- | --- | --- | --- | --- | --- | --- |
| 0.35 | 0.156 | C[C@]12C=CC(=O)C=C1CC[C@@H]1[C@@H]2[C@@H](O)C[C@@]2(C)[C@H]1CC[C@]2(O)C(=O)CO [Prednisolone, prednisolone] |  |  |  |  |  |
|  |  | C[C@]12C=CC(=O)C=C1CC[C@@H]1[C@@H]2[C@@H](O)C[C@@]2(C)[C@H]1CC[C@]2(O)C(=O)CO[C@@H]1O[C@H](CO)[C@@H](O)[C@H](O)[C@H]1O [Prednisolone-glucoside, 1,4-pregnadiene-11β-17α-diol-21-O-1′-β′-glucopyranosyl-3,20-dione] | stable | 639 | 0 | 861 | 349.5 |
